{
  "source": "a melting point compilation (Tetko et al.; mined from patent text by program, amines drawn as free bases though some values may be those of a salt)",
  "data": [
    {"units": {"melting point": "°C"}, "values": [
      {"compound": "Nn1c(=O)c2cc(F)c(S(=O)(O)=S)nc2n(C2CC2)c1=O", "melting point": "167 to 169"},
      {"compound": "O=C1CCC(NC(=O)C(Cl)(Cl)Cl)c2ccsc21", "note": "(stereo not drawn)", "melting point": "167 to 171"},
      {"compound": "COc1ccc2c(c1)-c1c(OC)ccc3c1C(C2=O)N(C)CC3", "note": "(stereo not drawn)", "melting point": "162 to 164"},
      {"compound": "CC(C)C(=O)NCCNC(=O)OC(C)(C)C", "melting point": "116 to 117"},
      {"compound": "COc1ccc2c(c1)CNCC(=O)N2", "melting point": 148},
      {"compound": "COc1cccc2c(=O)c(C#N)c(N)oc12", "melting point": 300},
      {"compound": "CC(C)CCNC(Nc1ccccc1)=C(C#N)C#N", "melting point": "183 to 185"},
      {"compound": "CCCOc1c(OCc2ccccc2)cc(C2CCC(=O)O2)cc1S(=O)(=O)CCC", "note": "(stereo not drawn)", "melting point": "95 to 96"},
      {"compound": "N#Cc1nn(-c2c(Cl)cc(C(F)(F)F)cc2Cl)c(N)c1C1C=CCCCC1", "note": "(stereo not drawn)", "melting point": "158 to 159"},
      {"compound": "O=C(O)c1c[nH]c2c1C(=O)CCCC2", "melting point": "225 to 227"},
      {"compound": "CCOC(=O)c1cc(OC)c2c(C)c(CCN(CC)CC)c(=O)oc2c1Cl", "melting point": "147 to 148"},
      {"compound": "Oc1ccc(Nc2ncc3ncc(-c4ccc(O)cc4)cc3n2)cc1", "melting point": "> 268"},
      {"compound": "COC(CNC1=Nc2ccc(Cl)cc2C(c2ccccc2)N1C)OC", "note": "(stereo not drawn)", "melting point": "104 to 105"},
      {"compound": "O=C(NCc1ccccc1)OCCc1noc(-c2ccc(CN3CCCCCC3)s2)n1", "melting point": "138 to 139"},
      {"compound": "CN(Sc1nc2ccccc2s1)C(C)(C)C", "melting point": "56 to 58"},
      {"compound": "CCOC(=O)c1cn(C)c2cnc3cc(F)c(N4CCC(O)(c5cccc(C(F)(F)F)c5)CC4)cc3c2c1=O", "melting point": 262},
      {"compound": "CC1(C(=O)Nc2ccc(OCC3CC3)c(Cl)c2)CC1", "melting point": "111 to 113"},
      {"compound": "Cc1c(Cc2ccccc2)c2c(c(C)c1NC(=O)CC(C)(C)C)CC(C)(C)O2", "melting point": "129 to 130"},
      {"compound": "COc1nc(C#N)c(C#N)n1C", "melting point": "192 to 194"},
      {"compound": "C[Si](C)(C)c1cccc(Cl)c1C(=O)NC(c1ccccc1)n1nnc2ccccc21", "note": "(stereo not drawn)", "melting point": "184 to 186"},
      {"compound": "CCOc1ccc(C=CC(=O)c2c(O)cc(OC)cc2OC)cc1", "melting point": 136},
      {"compound": "CN(c1nnc(C(F)(F)F)s1)C1CCN(Cc2ccc(F)cc2)CC1", "melting point": 85.8},
      {"compound": "C=CCOC1C(OC2C(COCc3ccccc3)OC(OC)C(OCc3ccccc3)C2OCc2ccccc2)OC(CO)C(O)C1OCc1ccccc1", "note": "(stereo not drawn)", "melting point": "119 to 120"},
      {"compound": "Oc1ccc2c(CCCCN3CC=C(c4cccs4)CC3)c[nH]c2c1", "melting point": 181},
      {"compound": "COc1ccnc(CCc2nc3cc(-c4ccc(S(=O)(=O)N5CCCN(C)CC5)cc4)cnc3[nH]2)c1", "melting point": "160 to 162"},
      {"compound": "Nc1nc(COCc2ccccc2)nc2nccnc12", "melting point": "112 to 114"},
      {"compound": "COc1cc(OC)nc(Oc2cccc(F)c2C(=O)O)n1", "melting point": "133 to 134"},
      {"compound": "CSC1=Nc2ccccc2Cn2cccc21", "melting point": "148 to 150"},
      {"compound": "CC(C)(C)OC(=O)N1CC[C@H](O)[C@H](F)C1", "note": "(relative stereo)", "melting point": 48},
      {"compound": "C=CCc1cc(C=CC(=O)O)ccc1OC(C)=O", "melting point": "143 to 144"},
      {"compound": "COc1cc2cnnc(N3CCC(=O)CC3)c2cc1OC", "melting point": "180 to 181"},
      {"compound": "O=C(Nc1cnccn1)Nc1cccc2c1C1CC3(CCN1C2=O)SCCS3", "note": "(stereo not drawn)", "melting point": 236},
      {"compound": "COC(=O)c1nc2cccc(Br)c2c(O)c1C(=O)OC", "melting point": "124 to 126"},
      {"compound": "O=C(O)[C@@H](CC(=O)N1CCN(CC(F)(F)F)CC1)Cc1ccccc1", "melting point": "96 to 98"},
      {"compound": "COc1cccc(-c2nc(C(=O)OC(C)(C)C)c(-c3ccncc3)[nH]2)c1", "melting point": "197 to 199"},
      {"compound": "CCCn1c(=O)c2[nH]c(/C=C/c3ccc(Cl)cc3)nc2n(CCC)c1=O", "melting point": "> 290"},
      {"compound": "CCc1ncnc(O)c1[N+](=O)[O-]", "melting point": "181 to 183"},
      {"compound": "O=S(=O)(Nc1ccncc1)c1ccc(Br)s1", "melting point": 310},
      {"compound": "Cc1c(N)cccc1-c1cn(C)c(=O)c(Nc2ccc(C3C(=O)N(C)CCN3C)cc2)n1", "note": "(stereo not drawn)", "melting point": "133 to 134"},
      {"compound": "Oc1ccc2cc(-c3cc4ccccc4s3)ccc2c1Cl", "melting point": "220 to 221"},
      {"compound": "O=[N+]([O-])c1ccc(N=Nc2ccc(N(CC3CO3)CC3CO3)cc2)cc1", "note": "(stereo not drawn)", "melting point": "135 to 136"},
      {"compound": "COc1cc2c(cc1OCc1ccccc1)ncc1c(N)nc(-n3ccnc3)cc12", "melting point": 140},
      {"compound": "CC(C)c1ccc(-n2nc(O)c3[nH]c4cc(Cl)ccc4c(=O)c3c2=O)cc1", "melting point": "323 to 326"},
      {"compound": "CCOC(=O)NC[C@H]1CN(c2ccc3c(c2)CCCc2cnoc2-3)C(=O)O1", "melting point": "181 to 183"},
      {"compound": "CCCc1nn(-c2ccc(C(F)(F)F)cn2)cc1CCCOc1nn(-c2ccccc2)cc1CC(=O)O", "melting point": "123 to 124"},
      {"compound": "CCCCCS(=O)(=O)NC(=O)C(C)Cc1ccc(OCCOC)cc1Oc1ncc(C(F)(F)F)cc1Cl", "note": "(stereo not drawn)", "melting point": "136 to 138"},
      {"compound": "CSC1=Nc2ccc(C(=O)c3cccnc3)cc2CN1", "melting point": 156},
      {"compound": "Brc1ccc2c3nc4ccccc4[nH]c-3nc2c1", "melting point": "> 300"},
      {"compound": "COc1ccc(C(=O)Nc2cc([N+](=O)[O-])ccc2Br)cc1OC", "melting point": "183 to 184"},
      {"compound": "COc1cc(O)ccc1-c1ccc2cc(O)ccc2c1", "melting point": "152 to 154"},
      {"compound": "CN(CC1CCCCN1CC(=O)N1c2ccccc2NC(=O)c2ccccc21)C1CCCCC1", "note": "(stereo not drawn)", "melting point": "146 to 148"},
      {"compound": "NS(=O)(=O)N1CCC(CCNC(=O)c2cc(Cl)ccn2)CC1", "melting point": "186 to 187"},
      {"compound": "CCOC(=O)c1cc(Cl)c(Cl)c(-c2cc(C)no2)c1C", "melting point": "86 to 88"},
      {"compound": "CN1c2ccc(C#CCOC3CCCCO3)cc2C(O)=C(C(=O)NCc2ccc(Cl)cc2)S1(=O)=O", "note": "(stereo not drawn)", "melting point": "148 to 149"},
      {"compound": "COc1cc(C(C)=O)ccc1OCCCN1CCC(=C(c2ccc(Cl)cc2)c2ccc(Cl)cc2)CC1", "melting point": "143 to 144"},
      {"compound": "CO/C(=C\\C=C\\c1cc2cc(C(F)(F)F)ccc2[nH]1)C(=O)O", "melting point": "191 to 193"},
      {"compound": "CC(C)N(CCOC1CCCC2Oc3ccccc3OC12)C(C)C", "note": "(stereo not drawn)", "melting point": 63.4},
      {"compound": "COC(=O)COc1ccc(CC(C)NCC(O)c2ccc(O)c(CO)c2)cc1", "note": "(stereo not drawn)", "melting point": "60 to 63"},
      {"compound": "CCCCCCC(C)Oc1ccc(N=Cc2ccccc2)cc1", "note": "(stereo not drawn)", "melting point": 47.3},
      {"compound": "CCOC(=O)CCNC(=O)Nc1ccccc1CCc1cc(C(C)(C)C)c(O)c(C(C)(C)C)c1", "melting point": "158 to 159"},
      {"compound": "CCCC[C@H](NC(=O)[C@H](Cc1ccccc1)NC(=O)OCc1ccccc1)C(=O)CSCc1ccco1", "melting point": "123 to 124"},
      {"compound": "Cc1cc(COc2ccc(Oc3ccc(Cl)cc3)cc2)n(O)c(=O)c1", "melting point": "168 to 170"},
      {"compound": "COC1=CC(N)C(C)(Cl)C=C1", "note": "(stereo not drawn)", "melting point": "83 to 85"},
      {"compound": "COc1ccc(-c2c(S(C)(=O)=O)ccc(C(=O)c3cnn(C(C)(C)C)c3OC(C)=O)c2C)cc1", "melting point": "160 to 163"},
      {"compound": "O=c1c2c(n(-c3ccccc3)c3ncccc13)CCC(O)C2", "note": "(stereo not drawn)", "melting point": "283 to 286"},
      {"compound": "Nc1ccc(S(F)(F)(F)(F)F)cc1", "melting point": "63 to 65"},
      {"compound": "O=C1OCC2C3OC(C4CCCCC43)C12", "note": "(stereo not drawn)", "melting point": "90 to 91"},
      {"compound": "CCOC(=O)C(Cc1ccc(OCCc2nc(-c3ccccc3)oc2C)cc1)C(=O)OCC", "melting point": "69.8 to 70.5"},
      {"compound": "COC(C)(C)C(=NO)n1ccnc1", "melting point": "155 to 160"},
      {"compound": "COC(=O)COc1ccc(OC)cc1C=O", "melting point": "74 to 75"},
      {"compound": "Nc1cscc1NC(=S)Nc1c(Cl)csc1Cl", "melting point": "110 to 115"},
      {"compound": "CN(C)C(=O)c1ccc(C(=O)Nc2cccc3cc(Br)cnc23)cc1", "melting point": "196 to 198"},
      {"compound": "O=C1CCC(=O)N1SCc1ccc([N+](=O)[O-])cc1", "melting point": "146 to 148"}
    ]}
  ]
}
